According to ChEMBL document CHEMBL4330147, “Adiponectin-Secretion-Promoting Phenylethylchromones from the Agarwood of Aquilaria malaccensis” (J Nat Prod, 2019):
The source made the active and inactive calls. The rule behind the calls is not given here.

Columns and labels:
Homo sapiens = species on record: Homo sapiens; assay: Induction of adipogenesis in human bone marrow-derived mesenchymal stem cells assessed as increase in adiponectin production at 30 uM measured on day 5 in presence of IDX by ELISA; type: functional
[1] = Induction of adipogenesis in human bone marrow-derived mesenchymal stem cells assessed as increase in adiponectin production at 30 uM measured on day 5 in presence of IDX by ELISA relative to control; type: functional
[2] = Induction of adipogenesis in human bone marrow-derived mesenchymal stem cells assessed as increase in adiponectin production at 60 uM measured on day 5 in presence of IDX by ELISA relative to pioglitazone; type: functional; conditions: 120 h
[3] = biological target: T1, Peroxisome proliferator-activated receptor gamma (Homo sapiens) (UniProt P37231); assay: Inhibition of labeled ligand binding to PPARgamma (unknown origin) at 60 uM by TR-FRET assay relative to control
T1 sequence (whole entry): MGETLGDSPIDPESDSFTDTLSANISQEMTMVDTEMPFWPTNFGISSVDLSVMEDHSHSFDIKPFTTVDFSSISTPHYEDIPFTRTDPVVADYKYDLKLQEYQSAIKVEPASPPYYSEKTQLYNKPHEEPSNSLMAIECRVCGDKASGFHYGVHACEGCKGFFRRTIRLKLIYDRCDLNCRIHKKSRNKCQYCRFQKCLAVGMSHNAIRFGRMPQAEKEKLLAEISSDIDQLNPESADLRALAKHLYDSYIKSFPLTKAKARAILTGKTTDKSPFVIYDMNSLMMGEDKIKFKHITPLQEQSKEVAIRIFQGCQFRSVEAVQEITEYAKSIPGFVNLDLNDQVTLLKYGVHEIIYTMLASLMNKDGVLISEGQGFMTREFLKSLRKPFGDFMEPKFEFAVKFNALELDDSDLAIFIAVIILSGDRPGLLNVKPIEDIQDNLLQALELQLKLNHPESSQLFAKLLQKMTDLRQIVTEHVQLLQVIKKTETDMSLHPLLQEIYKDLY

cells = conditions: Homo sapiens, 120 h
Description: Induction of adipogenesis in human bone marrow-derived mesenchymal stem cells assessed as increase in adiponectin production measured on day 5 in presence of IDX by ELISA

[4] = biological target: T2, Peroxisome proliferator-activated receptor gamma (Homo sapiens, UniProt P37231); assay: (§1) Binding affinity to PPARgamma (unknown origin) by TR-FRET assay
T2 sequence (P37231 whole entry): T1 sequence (whole entry)

[5] = biological target: T1, Peroxisome proliferator-activated receptor gamma (Homo sapiens); assay: Inhibition of labeled ligand binding to PPARgamma (unknown origin) at 30 uM by TR-FRET assay relative to control
[6] = biological target: T1, Peroxisome proliferator-activated receptor gamma (Homo sapiens); assay: as §1
[7] = biological target: T3, Glucocorticoid receptor (Homo sapiens) (UniProt P04150); assay: Binding affinity to GR (unknown origin) at 30 uM by TR-FRET assay
T3 sequence (whole entry): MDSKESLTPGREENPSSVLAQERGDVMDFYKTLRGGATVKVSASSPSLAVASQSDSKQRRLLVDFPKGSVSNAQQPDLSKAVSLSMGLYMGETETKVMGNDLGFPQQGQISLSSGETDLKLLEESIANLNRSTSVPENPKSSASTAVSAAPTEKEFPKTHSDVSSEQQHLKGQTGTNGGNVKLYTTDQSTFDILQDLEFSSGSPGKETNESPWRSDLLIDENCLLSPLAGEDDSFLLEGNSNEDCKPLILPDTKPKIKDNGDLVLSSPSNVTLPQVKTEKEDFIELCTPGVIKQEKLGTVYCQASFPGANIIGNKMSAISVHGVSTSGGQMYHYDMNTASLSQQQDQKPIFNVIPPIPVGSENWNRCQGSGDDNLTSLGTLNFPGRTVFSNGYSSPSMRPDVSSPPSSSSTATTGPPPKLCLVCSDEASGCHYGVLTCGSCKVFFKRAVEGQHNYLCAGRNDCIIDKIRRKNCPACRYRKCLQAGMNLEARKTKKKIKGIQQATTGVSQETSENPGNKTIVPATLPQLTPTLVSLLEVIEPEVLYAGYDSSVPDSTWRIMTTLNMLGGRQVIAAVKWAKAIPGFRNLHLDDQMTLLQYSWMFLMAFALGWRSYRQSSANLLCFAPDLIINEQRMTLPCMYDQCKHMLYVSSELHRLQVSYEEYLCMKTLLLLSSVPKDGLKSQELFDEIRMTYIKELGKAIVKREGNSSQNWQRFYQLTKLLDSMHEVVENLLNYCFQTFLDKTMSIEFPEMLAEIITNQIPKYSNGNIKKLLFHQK

[8] = biological target: T4, Peroxisome proliferator-activated receptor alpha (Homo sapiens) (UniProt Q07869); assay: Binding affinity to PPARalpha (unknown origin) at 30 uM by TR-FRET assay
T4 sequence (whole entry): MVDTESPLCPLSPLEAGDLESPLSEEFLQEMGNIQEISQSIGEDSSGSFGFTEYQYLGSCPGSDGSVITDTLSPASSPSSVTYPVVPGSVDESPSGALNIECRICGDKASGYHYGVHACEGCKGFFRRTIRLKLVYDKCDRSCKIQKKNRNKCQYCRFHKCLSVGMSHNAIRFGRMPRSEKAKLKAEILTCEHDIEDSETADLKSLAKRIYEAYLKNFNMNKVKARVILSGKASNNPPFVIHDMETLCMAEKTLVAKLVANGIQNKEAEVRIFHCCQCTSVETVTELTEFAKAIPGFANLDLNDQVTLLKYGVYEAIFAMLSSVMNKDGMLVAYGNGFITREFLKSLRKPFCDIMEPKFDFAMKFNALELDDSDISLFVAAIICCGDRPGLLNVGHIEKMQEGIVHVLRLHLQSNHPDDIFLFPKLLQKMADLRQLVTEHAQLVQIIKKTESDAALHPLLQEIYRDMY

[9] = biological target: T5, Peroxisome proliferator-activated receptor delta (Homo sapiens) (UniProt Q03181); assay: Binding affinity to PPARdelta (unknown origin) at 30 uM by TR-FRET assay
T5 sequence (whole entry): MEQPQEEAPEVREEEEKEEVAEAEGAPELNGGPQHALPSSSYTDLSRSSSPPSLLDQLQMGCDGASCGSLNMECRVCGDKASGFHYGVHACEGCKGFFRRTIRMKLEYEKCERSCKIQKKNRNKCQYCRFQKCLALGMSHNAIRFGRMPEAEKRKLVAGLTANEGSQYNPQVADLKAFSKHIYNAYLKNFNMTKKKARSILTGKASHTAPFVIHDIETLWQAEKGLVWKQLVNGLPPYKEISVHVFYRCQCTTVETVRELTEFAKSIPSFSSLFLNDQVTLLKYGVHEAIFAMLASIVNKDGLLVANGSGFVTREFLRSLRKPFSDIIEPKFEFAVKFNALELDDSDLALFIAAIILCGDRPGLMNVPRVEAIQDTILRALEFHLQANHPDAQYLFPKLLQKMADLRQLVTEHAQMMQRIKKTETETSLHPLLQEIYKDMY

[10] = biological target: T6, Oxysterols receptor LXR-alpha (Homo sapiens) (UniProt Q13133); assay: Binding affinity to LXRalpha (unknown origin) at 30 uM by TR-FRET assay
T6 sequence (whole entry): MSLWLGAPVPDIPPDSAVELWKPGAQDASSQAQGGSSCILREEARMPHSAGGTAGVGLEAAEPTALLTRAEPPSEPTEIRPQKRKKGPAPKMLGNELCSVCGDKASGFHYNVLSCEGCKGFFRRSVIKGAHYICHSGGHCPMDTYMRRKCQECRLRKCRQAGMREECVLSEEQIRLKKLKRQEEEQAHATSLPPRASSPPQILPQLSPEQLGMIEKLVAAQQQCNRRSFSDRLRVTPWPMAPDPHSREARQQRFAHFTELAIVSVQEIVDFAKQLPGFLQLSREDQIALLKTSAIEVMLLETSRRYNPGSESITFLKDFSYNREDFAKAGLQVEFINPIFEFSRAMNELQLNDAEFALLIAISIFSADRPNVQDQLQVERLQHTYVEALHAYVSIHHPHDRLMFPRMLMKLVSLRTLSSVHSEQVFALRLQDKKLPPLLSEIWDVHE

EC50 (cells) | SMILES | Activity (Homo sapiens) | also measured
> 60 µM | O=c1cc(CCc2ccccc2)oc2ccc(O)c(O)c12 | Active | fold change (FC) [1]: 1.97; Emax at 60 µM [2]: 48%; inhibition [3]: 41.1%
2.95 µM | COc1ccc(Cl)cc1C(=O)NCCc1ccc(S(=O)(=O)NC(=O)NC2CCCCC2)cc1 [GLYBURIDE] | – | Ki [4]: 0.66 µM
– | O=C1C=C(CCc2ccccc2)OC2C1[C@@H]1O[C@@H]1[C@H](O)[C@H]2O (relative stereo) | Active | –
– | COc1ccc2oc(CCc3ccccc3)cc(=O)c2c1O | Active | –
– | O=c1cc(CCc2ccccc2)oc2cccc(O)c12 | Active | –
20.3 µM | COc1ccc2c(=O)cc(CCc3ccccc3)oc2c1 | Active | inhibition [5]: 50.3%; Activity [6]: Dose-dependent effect; Ki [4]: 14.9 µM; Activity [7]: inactive; Activity [8]: inactive; Activity [9]: inactive; Activity [10]: inactive
– | O=c1cc(CCc2ccccc2)oc2c(O)cccc12 | inactive | –
– | O=c1cc(CCc2ccccc2)oc2c(Cl)cc(O)cc12 | Active | –
– | O=c1cc(CCc2ccccc2O)oc2ccccc12 | inactive | –
